SMILES strings stand for the structures. pKi: −log10 of the molar value. Where only a bound is given, the exact number is not on record here.

In this assay the target is 5-hydroxytryptamine receptor 2A (Rattus norvegicus) (UniProt P14842). Nature of the assay: Binding affinity was performed using [3H]ketanserin as the radioligand and stably transfected NIH3T3 cells expressing the 5-hydroxytryptamine 2A receptor (GF-62 cells).
Sequence of 5-hydroxytryptamine receptor 2A (Rattus norvegicus) (P14842 whole entry, looked up): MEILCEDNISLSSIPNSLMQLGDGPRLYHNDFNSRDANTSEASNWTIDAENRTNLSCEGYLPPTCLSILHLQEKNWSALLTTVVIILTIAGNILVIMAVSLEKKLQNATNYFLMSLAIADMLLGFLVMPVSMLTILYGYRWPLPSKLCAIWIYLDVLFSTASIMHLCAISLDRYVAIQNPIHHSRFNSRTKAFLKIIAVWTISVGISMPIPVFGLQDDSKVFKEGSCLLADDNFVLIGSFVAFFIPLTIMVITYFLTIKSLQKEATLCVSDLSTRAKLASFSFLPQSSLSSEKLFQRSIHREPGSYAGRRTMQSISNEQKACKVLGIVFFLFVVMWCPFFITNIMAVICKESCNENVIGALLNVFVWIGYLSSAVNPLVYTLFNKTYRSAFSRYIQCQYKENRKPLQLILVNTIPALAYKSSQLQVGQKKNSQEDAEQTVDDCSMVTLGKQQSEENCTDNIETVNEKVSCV
What is called pKi is the Ki on a negative log10 scale, so that one unit is a factor of ten. In turn, `c1ccc2c(c1)C1c3ccccc3C2C2NC12` (centres undefined) gave a pKi below 5.00.
`NCC1Cc2ccccc2-c2ccccc21` (centres undefined) showed a negative-log Ki (pKi) of 6.15.
For `CC1(CN)c2ccccc2Cc2ccccc21` the value was 7.19; for `NCC12CCC(c3ccccc31)c1ccccc12`, 6.11; for `NCC1CCCc2ccccc21` (centres undefined), below 5.00.
For `NCCc1ccccc1Cc1ccccc1` the value was 5.74; for `NCC12CC(c3ccccc31)c1ccccc12`, 5.17.
Then `NCC1c2ccccc2CCc2ccccc21`, with 6.95.
For the molecule `CC1(C)c2ccccc2C(CN)c2ccccc21`, the pKi is 6.48.
As for `CC(N)C1c2ccccc2Cc2ccccc21` (centres undefined), the negative-log Ki (pKi) was 6.71.
As for `NCc1c2ccccc2cc2ccccc12`, the negative-log Ki (pKi) is 5.64.
Then `NC1CC2c3ccccc3C1c1ccccc12` (centres undefined), with below 5.00; and `c1ccc2c(c1)Cc1cccc3c1C2CNC3` (centres undefined), with 6.53.
As for `NCC1CC2c3ccccc3C1c1ccccc12` (centres undefined), the pKi is 5.02. This pKi lies 1.51 log units lower than the previous one.

The record behind these values is ChEMBL document CHEMBL1135604, “Geometry-affinity relationships of the selective serotonin receptor ligand 9-(aminomethyl)-9,10-dihydroanthracene” (J Med Chem, 2002).
